According to patent publication EP0277910A1, “1-Methyl-15-alpha-(1,2-dialkanoyloxyalkyl)androsta-1,4-diene-3-17-diones, process for their preparation and pharmaceutical compositions containing them” (SCHERING AKTIENGESELLSCHAFT, priority 1987, dated 1988):

Target: T1, Aromatase (Rattus norvegicus, UniProt P22443)
T1 construct: Infantile weibliche Ratten reagieren auf PMSG (Pregnant Mare's Serum Gonadotropin)-Behandlung mit einheitlich erhöhter Steroidsynthese; from tissue; host or cells: living infantile female rats pretreated with PMSG
T1 sequence (P22443 1-508): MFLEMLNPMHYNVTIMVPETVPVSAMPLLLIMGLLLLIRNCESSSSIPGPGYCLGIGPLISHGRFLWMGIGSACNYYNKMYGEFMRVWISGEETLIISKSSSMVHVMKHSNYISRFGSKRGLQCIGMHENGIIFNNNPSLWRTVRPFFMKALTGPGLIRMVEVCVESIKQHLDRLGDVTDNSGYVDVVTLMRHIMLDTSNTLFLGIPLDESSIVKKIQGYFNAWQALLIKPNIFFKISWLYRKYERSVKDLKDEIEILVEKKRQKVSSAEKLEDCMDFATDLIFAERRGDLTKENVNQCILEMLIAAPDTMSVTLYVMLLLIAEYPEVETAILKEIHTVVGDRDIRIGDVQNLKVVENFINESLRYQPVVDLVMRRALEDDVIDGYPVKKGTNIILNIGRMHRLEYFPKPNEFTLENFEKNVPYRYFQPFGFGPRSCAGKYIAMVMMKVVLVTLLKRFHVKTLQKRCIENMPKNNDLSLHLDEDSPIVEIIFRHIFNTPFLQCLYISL
Assay: PMSG test: effect on serum oestradiol concentration in PMSG-pretreated infantile female rats
Format: in vivo, Ratte
Details: for Östradiol-Konzentration: peripheral serum, PMSG-pretreated rat, 24 h after last PMSG, mean ± SD; for Serum-östradiolkonzentration: in comparison with A and B
Protocol: Infantile weibliche Ratten reagieren auf PMSG (Pregnant Mare's Serum Gonadotropin)-Behandlung mit einheitlich erhöhter Steroidsynthese. Die Aromataseaktivität kann durch die Beeinflussung der PMSG-stimulierten Östrogenbildung gemessen werden.
Im sogenannten PMSG-Test werden 21 tage alte weibliche Ratten alle 2 Tage insgesamt 7 mal mit je 100 I.U. PMSG subkutan vorbehandelt. 1 Stunde vor und 8 Stunden nach der letzten PMSG-Applikation(d₁₂) erhalten die Tiere die Testsubstanz in 0,1 ml Benzylbenzoat/Rizinusöl (1+9) durch subkutane Injektion. Die Kontrolltiere erhalten nur das Vehikel. 24 Stunden nach der letzten PMSG-Applikation werden die Tiere getötet. Im serum wird Östradiol radioimmunologisch geprüft. Für jede Gruppe von Tieren wird der Mittelwert der Östradiolkonzentration in nMol/l mit der Standardabweichung errechnet. Die Signifikanzen der Unterschiede zur Kontrollgruppe werden durch die Varianzanalyse geprüft. Zur Ermittlung der relativen Wirkungsstärke der zu testenden Substanz im Vergleich zu der Standardsubstanz wird die Regressions- und Kovarianzanalyse durchgeführt. Ferner wird die prozentuale Hemmung gegen die PMSG-Kontrolle berechnet.

| Structure (SMILES) | Östradiol-Konzentration (Dosis 0,1 mg/Tier 2 x s.c.) | Östradiol-Konzentration (Dosis 0,3 mg/Tier 2 x s.c.) | Östradiol-Konzentration (Dosis 1,0 mg/Tier 2 x s.c.) | Serum-östradiolkonzentration |
| --- | --- | --- | --- | --- |
| C[C@]12CCC(=O)C(O)=C1CC[C@@H]1[C@@H]2CC[C@]2(C)C(=O)CC[C@@H]12 [A, 4-Hydroxy-4-androsten-3,17-dion, reference compound] | 3,98±1,12 nMol/l | 3,84±0,84 nMol/l | 1,94±0,62 nMol/l | – |
| CC[C@H](OC(C)=O)[C@H](OC(C)=O)[C@H]1CC(=O)[C@@]2(C)CC[C@H]3[C@@H](CCC4=CC(=O)C=C(C)[C@@]43C)[C@H]12 [D, 15α-(1R,2S-Diacetoxybutyl)-1-methyl-androsta-1,4-dien-3,17-dion] | 0,54±0,11 nMol/l | 0,88±0,15 nMol/l | 0,41±0,09 nMol/l | stärker gesenkt |
| CC(=O)O[C@H]([C@H]1CC(=O)[C@@]2(C)CC[C@H]3[C@@H](CCC4=CC(=O)C=C(C)[C@@]43C)[C@H]12)[C@H](C)OC(C)=O [C, 15α-(1R,2S-Diacetoxypropyl)-1-methyl-androsta-1,4-dien-3,17-dion] | 1,30±0,37 nMol/l | 0,68±0,32 nMol/l | 0,24±0,10 nMol/l | stärker gesenkt |
| CC(=O)OCC[C@H]1CC(=O)[C@@]2(C)CC[C@H]3[C@@H](CCC4=CC(=O)C=C(C)[C@@]43C)[C@H]12 [B, 15α-(Acetoxyethyl)-1-methyl-androsta-1,4-dien-3,17-dion, reference compound] | 2,11±0,39 nMol/l | 0,62±0,13 nMol/l | 0,54±0,07 nMol/l | – |
